# Reference: patent US20150150842A1, “DESETHYLAMIODARONE COMPOSITIONS” (priority 2012, published 2015)
# Where “and” joins values, the source holds several entries; their conditions need not be identical. Equal values may be shown once.
# How the values were obtained:
# [1] = system: conscious dogs with structural atrial remodelling; experiment: Chronic rapid atrial pacing induced atrial remodelling and burst-induced atrial fibrillation in conscious dogs
# Description: The experiments were performed on chronically instrumented Beagle dogs of both sexes, weighing 12-13 kg. The animals were subjected to the following surgery under general anaesthesia: pacemakers were implanted into bilateral subcutaneous pockets in the neck area (Logos, Karios; Biotronik Hungaria Ltd.) and were attached to pacemaker electrodes implanted into the right ventricle and right atrium. Radiofrequency catheter ablation was performed in each animal to achieve third degree atrioventricular (AV) block so that during subsequent rapid atrial pacing (400/min) the ventricles are protected from high heart rates. […] On the seventh day after surgery, following the measurement of right atrial effective refractory period the atrial pacemaker was set to a frequency of 400/min to achieve atrial electrical and structural remodelling. Right atrial rapid pacing is necessary to maintain for 3 months in this model to obtain complete remodeling of the atria signalled by the reduction of right atrial effective refractory period below 80 ms.
# The body weight of animals was monitored for strict adherence to the desired dose.
# The right atrial effective refractory period (ERP) was measured using the S1 -S2 protocol at cycle lengths of 150 and 300 ms. In addition ERP monitoring, 10-second long burst stimuli were applied at 800/min frequency to induce atrial fibrillation and the incidence of AF, the duration of AF episodes were measured before commencement of oral drug therapy and then after the initiation of therapy every 4 days.
# [2] = system: cardiac thyroid receptors; details: reported earlier (van Beeren et al, 1995; Latham et al, 1987); cited from earlier work
# rats = experiment: Chronic 28-day non-GLP toxicology in rats
# dogs = details: 4 weeks oral AMIO 45 mg/kg (from 243.2 ms, SE=9.7 after) or DEA 30 mg/kg (from 243.6 ms, SE=7.3 after)
# [3] = system: dog atrial and ventricular tissue; experiment: Atrial and ventricular action potential parameters after chronic oral treatment of non-instrumented dogs; assay type: in vivo, Beagle dogs; details: 500 ms cycle length, 4-week oral DEA 30 or AMIO 45 mg/kg/day
# conscious rats = system: conscious rats
# Description: The present experiments were performed on male, Sprague-Dawley CFY rats weighing 260-300 g. During a preliminary open-chest surgery we applied a loose silk loop around the left main coronary artery, and then the chest was closed (Leprán et al., 1983). Seven-eight days after the preliminary surgery—after complete recovery and healing—the loose silk loop was tightened to occlude the coronary artery in conscious, freely moving animals. During the first 15 min of myocardial infarction a bipolar ECG was recorded continuously (PowerLab 8SP, ADInstruments, Great Britain).
# We followed the survival rate during the acute phase (first 15 min) and during the subsequent 16 hours after coronary artery occlusion. The incidence and duration of arrhythmias in the acute phase were evaluated according to the Lambeth Conventions (Walker et al., 1988), i.e. ventricular fibrillation, ventricular tachycardia, and other types of arrhythmias, including ventricular extrasystoles, bigeminy, and salvos. The size of myocardial infarction was measured in the animals surviving for 16 hours after coronary artery occlusion using nitrotetrazolium-blue dye staining.
# Long-term oral pretreatment was applied for 1 month before the coronary artery occlusion. […] Control animals were given the vehicle in a volume of 5 ml/kg.
# isolated rabbit heart = experiment: Atrial fibrillation induced by rapid atrial pacing with carbachol in isolated (Langendorff) rabbit heart; parameters: species or system New Zealand white rabbits
# Description: Hearts from New Zealand white rabbits (1-2 kg) were used in the experiments. Animals were treated with an intravenous injection of 400 IU/kg heparin and anaesthetized by intravenous infusion of 30 mg/kg pentobarbital and sacrificed by cervical dislocation. The protocols were approved by the Department of Animal Health and Food Control of the Ministry of Agriculture and Rural Development, Hungary (XIII/01031/000/2008) and by the Ethical Committee for the Protection of Animals in Research of the University of Szeged, Szeged, Hungary (approval number I-74-125-2007). After median thoracotomy the heart was quickly removed and placed into cold (4° C.) Krebs-Henseleit solution (KHS) containing (in mM): NaCl 118, KCl 4.3, KH2PO4 1.2, MgSO4 1.2, Na pyruvate 5, NaHCO3 25, glucose 11, CaCl2 1.8, pH 7.4 when gassed with a mixture of 95% O2 and 5% CO2. The heart was then mounted on a modified Langendorff apparatus and perfused retrogradely through the aorta with oxygenated KHS warmed to 37° C. The pulmonary vein was also cannulated in order to perfuse the left atrial chamber. In order to record the optical monophasic action potentials the hearts were also loaded with the voltage sensitive fluorescent dye di-4 Anneps for 5 min. To stop the cardiac contractions and avoid motion artefacts during the optical image acquisition the electrical and mechanical activity of the heart was uncoupled by adding 11 mM 2,3-butanedione monoxime to the perfusate.
# Epicardial electrograms from the left atrial and left ventricular wall were amplified with a surface electrode amplifier (Experimetria, Hungary) and monitored using a high frequency oscilloscope (Leader Electronics Corporation, Korea). […] The high resolution optical action potential mapping system consisted of a light-emitting diode (LED) lamp as an excitation light source at a wavelength of 527 nm and a high-resolution, high-speed metal-oxide-semiconductor (CMOS) camera (MiCam02, type MCO2C4) equipped with an 580 nm long pass filter for acquiring the fluorescence images from the surface of the heart at a frequency of 833 Hz. Fluorescence images were analyzed using the Brainvison Analyze software (Brainvision Inc Tokyo, Japan).
# After allowing the hearts to stabilize for 15 min, acute episodes of atrial fibrillation were induced with rapid electrical stimulation of the atria at a rate of 50 Hz for 10 sec in the presence of 1 μM carbachol in the perfusate. […] All data are expressed as mean±SEM.
# All chemicals were purchased from Sigma-Aldrich (St. Louis, Mo., USA), except DEA and di-4 Anneps. Di-4 Anneps was purchased from Molecular Probes Inc. (Eugene, Oreg., USA). […]
smiles,measurement,setting,value
"CCCCc1oc2ccccc2c1C(=O)c1cc(I)c(OCCNCC)c(I)c1 [DEA, (2-Butylbenzofuran-3-yl)-[4-(2-ethylaminoethoxy)-3,5-diiodophenyl]methanone]","AF duration (s), Following 4-week treatment, individual animals","[1]; oral DEA 25 mg/kg/day, Control (before) 1 122.6, 1 505.8, 6 739.1",21.6 s and 44 s and 1.9 s
same,"Lg AF duration, Following 4-week treatment, individual animals","[1]; oral DEA 25 mg/kg/day, Control (before) 3.05, 3.17, 3.82",1.33 and 1.64 and 0.28
same,"ERP, Following 4-week treatment, individual animals","[1]; oral DEA 25 mg/kg/day, animals 2010/06, 2010/11, 2010/14, Control (before) <80 in all",80 ms (2×) and <80 ms
same,"Incidence of AF, Following 4-week treatment, individual animals","[1]; oral DEA 25 mg/kg/day, burst-induced AF, Control (before) 60%, 50%, 27%",10% (2×) and 27%
same,"Lg AF duration, Following 4-week treatment, Mean ± SE","[1]; oral DEA 25 mg/kg/day, n=3, Control (before) 3.35 ± 0.24",1.08 ± 0.41
same,"Incidence of AF, Following 4-week treatment, Mean ± SE","[1]; oral DEA 25 mg/kg/day, n=3, Control (before) 45.7 ± 9.77",15.7 ± 5.67%
same,"AF duration (s), Following 4-week treatment, Mean ± SE","[1]; oral DEA 25 mg/kg/day, n=3, Control (before) 3122 ± 1811.7",22.5 ± 12.16 s
same,Incidence and duration of atrial fibrillation,"[1]; three animals, 4-week oral treatment, DEA 25, AMIO 50 mg/kg/day, accompanied by prolongation of the ERP",markedly and significantly decreased
same,Affinity for cardiac thyroid receptors compared to AMIO,[2],higher affinity
same,Detection of the administered drug 14 days after the completion of administration,"rats; 28-day oral AMIO 200 mg/kg/day or DEA 100 mg/kg/day, plasma (DEA: plasma or cardiac tissue)",not detected in plasma or cardiac tissue samples
same,Elimination of DEA compared to AMIO,rats; 28-day oral study,significantly faster
same,ECG QTc interval after treatment,dogs,266.9 ms
same,"Vmax (V/s), Dog atrium","[3]; n = 3, CONTROL 249.7 ± 52.7",231.5 ± 45.4 V/s
same,"APD90 (ms), Dog atrium","[3]; n = 4, CONTROL 123.9 ± 9.6",156.6 ± 12.6 ms
same,Death due to the 1 month treatment,conscious rats; 1 month oral pretreatment,No death occurred
same,Survival rate during the acute phase of experimental myocardial infarction,conscious rats; 1 month oral pretreatment,significantly improved
same,"Behavioral changes, body weight increments","conscious rats; 1 month oral pretreatment, AMIO 30 or 100, DEA 15 or 50 mg/kg/day","Neither AMIO nor DEA produced any behavioral changes of the animals, or in body weight increments"
same,Arrhythmia score,"conscious rats; first 15 min after coronary artery occlusion, 1 month oral AMIO 100 or DEA 50 mg/kg/day, control 4.77±0.33",3.27±0.56
same,Incidence of ventricular fibrillation,"conscious rats; larger doses (AMIO 100, DEA 50 mg/kg/day), after coronary artery occlusion",significantly decreased
same,"Occurrence of atrial fibrillation, After treatment (number of hearts)","isolated rabbit heart; 1 μM carbachol, 50 Hz pacing 10 sec, DEA 5 μM, before treatment 5 of 5 hearts",0 of 5 and 0
same,"Occurrence of atrial fibrillation after treatment, %","isolated rabbit heart; 1 μM carbachol, DEA 5 μM, Control 77",0%
same,"Average duration of atrial fibrillation episodes, After treatment","isolated rabbit heart; 1 μM carbachol, DEA 5 μM, mean±SEM, before treatment 110.2 ± 37.1",0 ± 0
same,Occurrence of atrial fibrillation,isolated rabbit heart; second trial,completely prevented the occurrence of atrial fibrillation
